Earlier results as cited in patent publication US8536378B2 (The Board of Trustees of the Leland Stanford Junior …, priority 2007, dated 2013).

Experiments:
latent HIV-1 = settings: fold more potent than prostratin
[1] = test system: T-lymphoblastoid CEM-SS and C-8166 cell lines; settings: in vitro
latent HIV = settings: latently infected CD4+ T cells
[2] = estimate in reference note 20
[3] = compared with other phorbol esters such as PMA

| SMILES | potency in activating latent HIV-1 relative to prostratin (latent HIV-1) | downregulation of CD4 and CXCR4 receptors (CD4 and CXCR4 receptors) | cytotoxicity: concentration up to which no sign of cytotoxicity was observed ([1]; CEM-SS and C-8166 cell lines) [µM] | prostratin concentration at which cell viability was restored to the level of uninfected controls ([1]; HIV-infected CEM-SS and C-8166 cell lines) | CD4 receptors on cell surfaces (CD4 and CXCR4 receptors; CEM-SS and MT-4 cell lines) | HIV gene expression / activation of latent HIV (latent HIV) | estimated oral bioavailability [2] [%] | tumor-promoting activity [3] |
| --- | --- | --- | --- | --- | --- | --- | --- | --- |
| CC1=C[C@H]2[C@@]3(O)[C@H](C)C[C@]4(OC(=O)Cc5ccccc5)C([C@@H]3C=C(CO)C[C@]2(O)C1=O)C4(C)C (stereo partly drawn) [DPP, 12-deoxyphorbol-13-phenylacetate] | 20-30 fold | downregulates CD4 and CXCR4 receptors at nanomolar concentrations |  |  |  |  |  |  |
| CC(=O)O[C@@]12C[C@@H](C)[C@@]3(O)[C@@H](C=C(CO)C[C@]4(O)C(=O)C(C)=C[C@@H]34)[C@@H]1C2(C)C [prostratin, 12-deoxyphorbol-13-acetate] |  |  | > 25 | approximately 1 μM | significantly reduced | induces HIV gene expression | ~28 | does not exhibit the tumor-promoting activity |
| CCCCCCCCCCCCCC(=O)O[C@@H]1[C@@H](C)[C@@]2(O)[C@@H](C=C(CO)C[C@]3(O)C(=O)C(C)=C[C@@H]23)[C@@H]2C(C)(C)[C@]12OC(C)=O [PMA, phorbol 12-myristate-13-acetate, reference compound] |  |  |  |  |  | activate latent HIV |  |  |
